Experimental data taken from US12279611B2, “Method for controlling insects where an alkoxylated glycerol is applied to soil” (priority 2016, dated 2025).
Several values for one entry are separate records, joined by “and”; a condition that tells them apart may be missing. Identical values can stand only once.

How the values were obtained:
[1] = Wetting front test (soil migration by capillary action in soil-filled tubes, wetting front measured by caliper); format: physicochemical; details: for Migration: single replicates
Description: • Polymer A: Polymer formed from glycerol and ethylene oxide and propylene oxide units; molecular weight about 3000 g/mol, hydroxyl number about 56 mg KOH/g, clear liquid, dynamic viscosity at 25° C. about 582 cP, density at 25° C. about 1.02 g/cm^3. • Polymer B: Liquid composition, 70 wt % Polymer A, 10 wt % nonionic surfactant (ethoxylated alcohol, HLB about 13, hydroxyl number about 125), 10 wt % anionic surfactant (dodecylbenzene calcium sulfonate), and 10 wt % 1,2-propylene glycol. • Surfactant A: liquid, nonionic ethoxylated tristyrylphenol, HLB 10-11. • Surfactant B: nonionic EO-PO-EO Triblockcopolymer, average molecular weight about 2500 Da, pour point −4° C., HLB 1-7, solubility in water at least 10 wt % at 25° C. • Surfactant C: Alkyl polyethylene glycol ether based on C10-Guerbet alcohol, HLB about 13, solubility in water at least 10 wt % at 23° C. • Surfactant D: Calcium dodecylbenzene sulfonate. • Silica Thickener: White powder, hydrophilic fumed silica, specific surface area (BET) about 200 m^2/g; average primary particle diameter 12 nm, tapped density about […]. Wetting Front Test Procedure
A fine nylon netting was adhered (Polyseamseal® Caulk, Henkel Corp) to one end each of 15 cm×1.5 cm plastic tubes. Tubes were filled with Greenville silt loam (sand:silt:clay, 22:58:20). As soil was added, tubes were tapped on the lab bench to loosely pack the soil (approximately 50 g soil per tube). Aqueous solutions of subject treatments were prepared. Solutions (4 ml) were added to glass beakers (50 ml capacity), and the soil-filled tubes were placed in the beakers. Each treatment was replicated 4 times. […] Means were separated at the […] via ANOVA followed by Tukey's HSD.

[2] = Wetting front test with segment analysis (soil segments extracted with acetonitrile, broflanilide quantified by HPLC-UV); format: physicochemical; details: Example 3; for Concentration of broflanilide in segment 0-2 cm (average of four replicates): soil segment 0-2 cm; for Concentration of broflanilide in segment 2-4 cm (average of four replicates): soil segment 2-4 cm; for Concentration of broflanilide in segment 4-6 cm (average of four replicates): soil segment 4-6 cm; for Concentration of broflanilide in segment 6-8 cm (average of four replicates): soil segment 6-8 cm; for Concentration of broflanilide in segment 8-10 cm (average of four replicates): soil segment 8-10 cm
Description: A fine nylon netting was adhered (Polyseamseal® Caulk, Henkel Corp) to one end each of 15 cm×1.5 cm plastic tubes. Tubes were filled with Greenville silt loam (sand:silt:clay, 22:58:20). As soil was added, tubes were tapped on the lab bench to loosely pack the soil (approximately 50 g soil per tube). Aqueous solutions of subject treatments were prepared. Solutions (4 ml) were added to glass beakers (50 ml capacity), and the soil-filled tubes were placed in the beakers. Each treatment was replicated 4 times. The solutions migrated upward into the soil via capillary action, and after 20 hours, the wetting front was measured in three locations using a digital caliper. Means were separated at the […] via ANOVA followed by Tukey's HSD. An aqueous solution comprising 600 ppm broflanilide was made from an aqueous suspension concentrate comprising 100 g/l broflanilide. Optionally 3000 ppm of Polymer B was added. The wetting front test was made as described above with another analytical method: The soil filled tubes (four replicates for both the sample with and without polymer) were separated in seven segments with each 2 cm long. The segment “0-2 cm” was the segment on the bottom which had direct contact to the aqueous solution of broflanilide. The segments (about 4.0 g each) were extracted twice with acetonitrile. The amount of broflanilide was quantified via HPLC with UV detection.

[3] = Example 2, 600 ppm broflanilide + 1500 ppm Polymer A, Greenville silt loam, 20 hours
[4] = Example 2, 600 ppm broflanilide + 3000 ppm Polymer A, Greenville silt loam, 20 hours
[5] = Example 2, 600 ppm broflanilide + 4200 ppm Polymer A, Greenville silt loam, 20 hours
[6] = Example 4, 600 ppm broflanilide + 300 ppm Polymer A, Greenville silt loam, 20 hours
[7] = Example 4, 600 ppm broflanilide + 600 ppm Polymer A, Greenville silt loam, 20 hours
[8] = Example 4, 600 ppm broflanilide + 1500 ppm Polymer A, Greenville silt loam, 20 hours
[9] = Example 4, 600 ppm broflanilide, no polymer, Greenville silt loam, 20 hours
[10] = 600 ppm broflanilide + 3000 ppm Polymer B
[11] = 600 ppm broflanilide, no polymer
[12] = Example 1, 600 ppm chlorfenapyr + 1200 ppm Polymer B, Greenville silt loam, 20 hours
[13] = Example 1, 600 ppm chlorfenapyr + 3000 ppm Polymer B, Greenville silt loam, 20 hours
[14] = Example 5, 600 ppm fipronil + 1200 ppm Polymer B, after 2 h
[15] = Example 5, 600 ppm fipronil + 1200 ppm Polymer B, after 20 h
[16] = Example 5, 600 ppm fipronil + 3000 ppm Polymer B, after 2 h
[17] = Example 5, 600 ppm fipronil + 3000 ppm Polymer B, after 20 h
[18] = Example 5, 600 ppm fipronil, no polymer, after 20 h

## CN(C(=O)c1ccccc1)c1cccc(C(=O)Nc2c(Br)cc(C(F)(C(F)(F)F)C(F)(F)F)cc2C(F)(F)F)c1F [Broflanilide, broflanilide]
[1]; [3]
  Average Migration: 9.29 cm
  Migration: 8.89 cm and 9.34 cm (2×) and 9.6 cm
[1]; [4]
  Average Migration: 8.74 cm
  Migration: 8.53 cm and 8.62 cm and 8.60 cm and 9.19 cm
[1]; [5]
  Average Migration: 8.79 cm
  Migration: 8.37 cm and 9.22 cm and 8.74 cm and 8.82 cm
[1]; [6]
  Average Migration: 7.78 cm
  Migration: 7.90 cm and 7.72 cm and 7.71 cm and 7.80 cm
[1]; [7]
  Average Migration: 7.98 cm
  Migration: 7.98 cm and 7.77 cm and 8.04 cm and 8.02 cm
[1]; [8]
  Average Migration: 7.72 cm
  Migration: 7.73 cm and 7.69 cm and 7.82 cm and 7.64 cm
[1]; [9]
  Average Migration: 6.89 cm
  Migration: 7.32 cm and 6.75 cm and 6.61 cm and 6.88 cm
[2]; [10]
  Concentration of broflanilide in segment 0-2 cm (average of four replicates): 170 ppm
  Concentration of broflanilide in segment 2-4 cm (average of four replicates): 36 ppm
  Concentration of broflanilide in segment 4-6 cm (average of four replicates): 16 ppm
  Concentration of broflanilide in segment 6-8 cm (average of four replicates): 4 ppm
  Concentration of broflanilide in segment 8-10 cm (average of four replicates): 0 ppm
[2]; [11]
  Concentration of broflanilide in segment 0-2 cm (average of four replicates): 127 ppm
  Concentration of broflanilide in segment 2-4 cm (average of four replicates): 51 ppm
  Concentration of broflanilide in segment 4-6 cm (average of four replicates): 3 ppm
  Concentration of broflanilide in segment 6-8 cm (average of four replicates): 0 ppm
  Concentration of broflanilide in segment 8-10 cm (average of four replicates): 0 ppm

## CCOCn1c(-c2ccc(Cl)cc2)c(C#N)c(Br)c1C(F)(F)F [Chlorfenapyr, chlorfenapyr]
[1]; Example 1, 600 ppm chlorfenapyr (Phantom SC), no polymer, Greenville silt loam, 20 hours
  Migration: 7.7780 cm and 7.5100 cm and 7.6600 cm and 7.7640 cm
[1]; [12]
  Average Migration: 8.39 cm
  Migration: 8.3770 cm and 8.3350 cm and 8.4290 cm and 8.4350 cm
[1]; [13]
  Average Migration: 8.81 cm
  Migration: 8.7420 cm and 8.7610 cm and 8.8760 cm and 8.8460 cm
[1]; Example 1, 600 ppm chlorfenapyr, no polymer, Greenville silt loam, 20 hours
  Average Migration: 7.68 cm

## N#Cc1nn(-c2c(Cl)cc(C(F)(F)F)cc2Cl)c(N)c1[S+]([O-])C(F)(F)F (stereo not drawn) [Fipronil, fipronil]
[1]; Example 5, 600 ppm fipronil (Termidor SC), no polymer, after 2 h
  Migration: 6.0 cm and 6.1 cm and 6.5 cm and 6.4 cm
[1]; [14]
  Average Migration: 6.70 cm
  Migration: 6.5 cm and 7.0 cm and 6.7 cm and 6.6 cm
[1]; [15]
  Average Migration: 7.93 cm
  Migration: 7.7 cm and 8.0 cm (3×)
[1]; [16]
  Average Migration: 6.98 cm
  Migration: 7.1 cm and 7.0 cm (2×) and 6.8 cm
[1]; [17]
  Average Migration: 8.40 cm
  Migration: 8.5 cm and 8.3 cm and 8.4 cm (2×)
[1]; Example 5, 600 ppm fipronil, no polymer, after 2 h
  Average Migration: 6.25 cm
[1]; [18]
  Average Migration: 7.38 cm
  Migration: 7.0 cm and 7.4 cm (2×) and 7.7 cm
